In article PMC7681098 (Theranostics, 2021):
Read-outs that look alike come from different tables or passages of the source.

How the values were obtained:
[1] = molecular target: FLT3 (Homo sapiens, UniProt P36888); assay: Cellular thermal shift assay (CETSA / ITDRF CETSA) in MV4-11 cells; assay type: binding
Method: All studies were performed with the Super Streptavidin (SSA) biosensors (CA, USA). All binding experiments were performed according to the manufacturer's instructions. For the cellular thermal shift assay (CETSA), experiments were performed as described previously.
A concentration range from 0.3 nM to 1000 nM was defined (Figure 1B). […] CETSA has been used to identify FLT3-LT-171-861 interactions in live cell settings. […] We first verified that the inhibitor could stabilize FLT3 against denaturation using Western blot. […] An obvious thermal shift of the melting curve was detected in the LT-171-861-treated sample (Figure 1C). […] Accordingly, we identified 53 °C as the optimal temperature for isothermal […] fingerprint (ITDRF) CETSA.
(§1) (A) Chemical structure of LT-171-861. […] Data were then fitted to obtain KD value. […] Data were first normalized by setting the highest and lowest value in each set to 100% and 0% respectively. Data were obtained in the presence of the LT-171-861 (blue circle) as positive the control and DMSO (red square) as the negative control. All experiments were performed at three independent occasions and data are given as the mean ± SD. […] Cell viability was evaluated by MTT assay respectively. The IC50 values were calculated using nonlinear regression.

[2] = molecular target: T1, c-Kit (Homo sapiens, UniProt P10721); assay: Kinase inhibition assay (Reaction Biology); assay type: biochemical
T1 construct: purchased Reaction Biology Corporation (PA, USA)

[3] = molecular target: T2, c-Src (Homo sapiens, UniProt P12931); assay: Kinase inhibition assay (Reaction Biology); assay type: biochemical
T2 construct: purchased Reaction Biology Corporation (PA, USA)

[4] = molecular target: T3, ERK1 (Homo sapiens, UniProt P27361); assay: Kinase inhibition assay (Reaction Biology); assay type: biochemical
T3 construct: purchased Reaction Biology Corporation (PA, USA)

[5] = molecular target: T4, FLT3 (Homo sapiens, UniProt P36888); assay: Kinase inhibition assay (Reaction Biology); assay type: biochemical
T4 construct: purchased Reaction Biology Corporation (PA, USA)

[6] = molecular target: T5, FLT3 (D835Y) (Homo sapiens, UniProt P36888, D835Y); assay: Kinase inhibition assay (Reaction Biology); assay type: biochemical
T5 construct: purchased Reaction Biology Corporation (PA, USA)

[7] = molecular target: T6, FMS (Homo sapiens, UniProt P07333); assay: Kinase inhibition assay (Reaction Biology); assay type: biochemical
T6 construct: purchased Reaction Biology Corporation (PA, USA)

[8] = molecular target: T7, JAK1 (Homo sapiens, UniProt P23458); assay: Kinase inhibition assay (Reaction Biology); assay type: biochemical
T7 construct: purchased Reaction Biology Corporation (PA, USA)

[9] = test system: MOLM13; assay: Cell proliferation MTT assay; assay type: cell-based; conditions: Homo sapiens, MOLM-13, 72 h, read-out: Human leukemia cell line IC50 MOLM13
Method: (§2) The conditional medium (CM) was prepared from the supernatant of HS-5 cell culture for 5 days under normal culture conditions. At the indicated time point, cell viability was evaluated by MTT assay.

[10] = test system: MV4-11; assay: Cell proliferation MTT assay; assay type: cell-based; conditions: Homo sapiens, 72 h, read-out: Human leukemia cell line IC50 MV4-11
Method: as §2

[11] = test system: THP-1; assay: Cell proliferation MTT assay; assay type: cell-based; conditions: Homo sapiens, 72 h, wild-type FLT3, read-out: Human leukemia cell line IC50 THP-1
Method: as §2

[12] = test system: U937; assay: Cell proliferation MTT assay; assay type: cell-based; conditions: Homo sapiens, U-937, 72 h, wild-type FLT3, read-out: Human leukemia cell line IC50 U937
Method: as §2

[13] = molecular target: FLT3 (Homo sapiens, UniProt P36888); assay: FLT3 autophosphorylation by western blot in MV4-11 and MOLM13 cells; assay type: cell-based; conditions: 2 h, read-out: IC50 of inhibition of FLT3 autophosphorylation
Method: Western blot analysis was performed as previously described. AML cell lines, BaF3 transformed cell lines and human primary cells were treated with the indicated concentration of FLT3 inhibitors for 2 h. To examine the phosphorylation levels of FLT3-Y591 (Cat. #3464s), p44/42-Thr202/Tyr204 (Cat. #4370), whole-cell lysates were subjected to immunoblotting with the corresponding primary antibodies from Cell Signaling Technology (MA, USA). Anti-STAT5 (Cat. #a7733), anti-STAT5-Y694 (Cat. #ap0070), anti-ERK1/2 (Cat. #a1013), anti-AKT (Cat. #a7270), anti-AKT-Ser473 (Cat. #ap0098), anti-Caspase 3 (Cat. #a11021), anti-PARP1 (Cat. #a0010), anti-Bcl2 (Cat. #a19693), anti-Mcl-1 (Cat. #a0434), anti-Pim2 (Cat. #a9230), anti-Caspase8 (Cat. #a19549) and anti-FLT3 (Cat. #a12437) were purchased from ABclonal Company (Wuhan, China).
as §1

[14] = test system: bone marrow mononuclear cells (BMMCs); assay: Apoptosis assay in normal bone marrow mononuclear cells; assay type: cell-based, C57BL/6 mice; conditions: 36 h
Method: Blue square and solid line represent intravenous injection administration. […] Mice were sacrificed at indicated time points and then tumor tissues were dissected and lysed. Phosphorylation levels of FLT3, STAT5 and ERK1/2 were measured by western blotting. (C) Bone marrow mononuclear cells (BMMCs) were isolated from healthy C57BL/6 mice. […] Apoptosis assays were conducted after 36-hour incubation. […] 24 h after the last administration, c-Kit^+ cells were evaluated by flow cytometry. […] Data were shown with mean±SD.
Then, we evaluated progenitor cell (c-Kit^+) lineages of bone marrow cells (Figure 4D), spleen or liver weights (Figure S2A), relative body weights (Figure S2B), and parameters of blood routine examination (Figure S2C).

T1 sequence (P10721 26-976): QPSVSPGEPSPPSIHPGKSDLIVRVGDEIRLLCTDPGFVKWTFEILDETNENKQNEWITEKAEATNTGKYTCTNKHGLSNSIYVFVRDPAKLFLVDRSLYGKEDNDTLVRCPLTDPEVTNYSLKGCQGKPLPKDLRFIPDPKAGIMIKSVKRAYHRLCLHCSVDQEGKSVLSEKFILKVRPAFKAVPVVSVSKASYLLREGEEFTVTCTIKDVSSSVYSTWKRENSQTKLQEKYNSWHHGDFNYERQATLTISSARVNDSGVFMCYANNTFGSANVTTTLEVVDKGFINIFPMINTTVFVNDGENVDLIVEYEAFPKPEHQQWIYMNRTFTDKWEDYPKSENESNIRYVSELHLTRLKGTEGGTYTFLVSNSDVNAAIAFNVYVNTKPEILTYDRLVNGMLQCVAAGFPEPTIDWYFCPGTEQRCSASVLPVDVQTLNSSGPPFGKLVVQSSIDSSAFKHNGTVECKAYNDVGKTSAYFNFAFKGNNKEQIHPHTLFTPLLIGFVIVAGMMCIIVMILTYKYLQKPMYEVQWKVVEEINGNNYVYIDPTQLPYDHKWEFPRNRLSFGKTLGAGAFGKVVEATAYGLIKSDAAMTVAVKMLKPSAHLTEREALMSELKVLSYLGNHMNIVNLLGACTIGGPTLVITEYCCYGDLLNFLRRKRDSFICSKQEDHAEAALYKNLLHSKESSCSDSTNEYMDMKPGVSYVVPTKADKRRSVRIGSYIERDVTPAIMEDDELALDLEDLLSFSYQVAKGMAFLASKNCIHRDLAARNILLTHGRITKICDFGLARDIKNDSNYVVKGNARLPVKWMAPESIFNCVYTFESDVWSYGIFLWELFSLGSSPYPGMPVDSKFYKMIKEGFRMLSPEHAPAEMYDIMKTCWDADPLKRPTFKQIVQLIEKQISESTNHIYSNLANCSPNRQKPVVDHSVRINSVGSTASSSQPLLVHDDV
T3 sequence (P27361 whole entry): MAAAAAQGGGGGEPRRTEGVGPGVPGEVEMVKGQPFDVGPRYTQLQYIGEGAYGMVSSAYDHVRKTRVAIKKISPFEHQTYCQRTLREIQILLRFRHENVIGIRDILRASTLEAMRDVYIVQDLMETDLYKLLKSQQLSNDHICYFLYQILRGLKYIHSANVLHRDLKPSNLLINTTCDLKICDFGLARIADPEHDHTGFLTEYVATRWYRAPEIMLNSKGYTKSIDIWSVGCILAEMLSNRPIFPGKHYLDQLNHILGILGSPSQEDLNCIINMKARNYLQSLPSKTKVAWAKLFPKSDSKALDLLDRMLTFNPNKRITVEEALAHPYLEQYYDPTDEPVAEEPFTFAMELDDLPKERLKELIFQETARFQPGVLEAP
T6 sequence (P07333 20-972): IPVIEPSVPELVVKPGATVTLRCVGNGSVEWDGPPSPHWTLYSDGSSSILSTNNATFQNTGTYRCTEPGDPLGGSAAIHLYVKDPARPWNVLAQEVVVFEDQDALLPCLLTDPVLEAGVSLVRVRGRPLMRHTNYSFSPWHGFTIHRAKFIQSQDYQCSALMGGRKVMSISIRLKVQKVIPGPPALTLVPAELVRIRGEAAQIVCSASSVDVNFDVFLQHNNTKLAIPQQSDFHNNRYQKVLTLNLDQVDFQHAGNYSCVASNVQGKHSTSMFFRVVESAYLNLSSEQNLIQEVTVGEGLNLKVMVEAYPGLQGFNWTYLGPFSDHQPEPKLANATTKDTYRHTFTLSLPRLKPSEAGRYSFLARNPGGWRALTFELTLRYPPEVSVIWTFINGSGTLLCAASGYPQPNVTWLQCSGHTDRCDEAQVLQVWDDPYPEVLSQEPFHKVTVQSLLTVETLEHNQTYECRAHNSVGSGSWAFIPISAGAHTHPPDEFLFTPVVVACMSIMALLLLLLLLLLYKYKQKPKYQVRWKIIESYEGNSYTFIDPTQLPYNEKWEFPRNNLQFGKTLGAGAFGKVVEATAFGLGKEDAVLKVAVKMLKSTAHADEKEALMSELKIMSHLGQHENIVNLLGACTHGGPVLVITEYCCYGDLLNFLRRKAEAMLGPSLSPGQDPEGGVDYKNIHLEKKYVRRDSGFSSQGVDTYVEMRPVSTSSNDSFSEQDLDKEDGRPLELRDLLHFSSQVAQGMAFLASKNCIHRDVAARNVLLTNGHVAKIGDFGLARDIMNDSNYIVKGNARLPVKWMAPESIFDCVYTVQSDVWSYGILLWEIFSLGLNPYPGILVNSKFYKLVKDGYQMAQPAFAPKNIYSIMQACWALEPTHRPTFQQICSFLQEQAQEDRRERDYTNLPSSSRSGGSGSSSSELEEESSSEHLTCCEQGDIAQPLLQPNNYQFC
T7 sequence (P23458 whole entry): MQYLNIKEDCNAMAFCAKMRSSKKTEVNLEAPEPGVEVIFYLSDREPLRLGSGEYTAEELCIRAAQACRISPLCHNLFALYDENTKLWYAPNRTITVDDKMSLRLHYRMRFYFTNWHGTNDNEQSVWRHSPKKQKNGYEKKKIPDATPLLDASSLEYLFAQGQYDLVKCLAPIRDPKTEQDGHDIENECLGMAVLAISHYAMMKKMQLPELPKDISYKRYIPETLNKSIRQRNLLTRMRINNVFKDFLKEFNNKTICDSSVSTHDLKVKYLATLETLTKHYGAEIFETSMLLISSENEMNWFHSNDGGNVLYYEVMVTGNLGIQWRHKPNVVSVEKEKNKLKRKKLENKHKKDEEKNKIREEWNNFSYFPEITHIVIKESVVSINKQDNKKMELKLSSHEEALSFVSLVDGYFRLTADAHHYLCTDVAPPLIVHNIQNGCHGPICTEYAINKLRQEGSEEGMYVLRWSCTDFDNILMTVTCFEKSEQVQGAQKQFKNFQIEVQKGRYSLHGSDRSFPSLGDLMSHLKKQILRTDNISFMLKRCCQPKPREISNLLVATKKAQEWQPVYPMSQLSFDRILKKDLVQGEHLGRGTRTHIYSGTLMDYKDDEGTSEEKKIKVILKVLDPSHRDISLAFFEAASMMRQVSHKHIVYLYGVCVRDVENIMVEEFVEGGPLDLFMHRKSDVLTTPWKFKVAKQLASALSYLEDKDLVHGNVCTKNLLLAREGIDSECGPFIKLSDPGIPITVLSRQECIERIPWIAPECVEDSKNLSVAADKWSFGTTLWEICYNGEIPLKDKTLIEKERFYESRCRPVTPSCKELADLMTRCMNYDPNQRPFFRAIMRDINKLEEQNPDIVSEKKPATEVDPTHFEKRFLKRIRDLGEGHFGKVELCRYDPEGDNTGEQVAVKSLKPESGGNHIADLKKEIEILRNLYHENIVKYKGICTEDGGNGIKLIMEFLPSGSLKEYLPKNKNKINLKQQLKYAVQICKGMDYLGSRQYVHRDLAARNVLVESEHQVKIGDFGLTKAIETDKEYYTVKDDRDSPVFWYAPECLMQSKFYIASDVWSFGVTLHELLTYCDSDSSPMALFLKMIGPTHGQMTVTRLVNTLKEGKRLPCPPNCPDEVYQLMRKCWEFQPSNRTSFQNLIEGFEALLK
T2 sequence (P12931 whole entry): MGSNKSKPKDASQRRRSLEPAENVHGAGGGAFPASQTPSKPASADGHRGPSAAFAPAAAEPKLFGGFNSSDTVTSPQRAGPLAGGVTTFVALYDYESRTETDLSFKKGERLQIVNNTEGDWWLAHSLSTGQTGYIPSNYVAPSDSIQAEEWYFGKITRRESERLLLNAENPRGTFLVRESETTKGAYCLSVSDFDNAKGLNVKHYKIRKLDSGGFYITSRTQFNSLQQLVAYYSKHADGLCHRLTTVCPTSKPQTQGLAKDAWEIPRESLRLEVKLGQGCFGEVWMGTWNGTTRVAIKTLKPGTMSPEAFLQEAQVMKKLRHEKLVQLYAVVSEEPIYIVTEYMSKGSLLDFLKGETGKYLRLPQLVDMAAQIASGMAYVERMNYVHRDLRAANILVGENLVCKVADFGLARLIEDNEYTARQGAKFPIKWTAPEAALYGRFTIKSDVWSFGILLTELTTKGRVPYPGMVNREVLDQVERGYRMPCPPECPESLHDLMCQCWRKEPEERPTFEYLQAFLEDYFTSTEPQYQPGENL

## CN1CCN(Cc2ccc(NC(=O)c3n[nH]cc3Nc3ncnc4[nH]ccc34)cc2)CC1 [LT-171-861]
[1]; 1 h, 53 °C, read-out: fitted Kd value (ITDRF CETSA)
  Kd: 78.5 nM
[1]; LT-171-861 10 µM 1 h, 49.11 °C without LT-171-861
  apparent aggregation temperature (Tagg) for FLT3: 52.91 °C
[2]
  IC50: > 200 nM
[2]; 10 μM ATP, 10-dose IC50 mode
  IC50: 1810 nM
[3]
  IC50: 72 nM
[4]
  IC50: > 200 nM
[4]; 10 μM ATP, 10-dose IC50 mode
  IC50: 1060 nM
[5]
  IC50: < 1 nM
[5]; 10 μM ATP, 10-dose IC50 mode
  IC50: 0.234 nM
[6]
  IC50: < 1 nM
[6]; 10 μM ATP, 10-dose IC50 mode
  IC50: 0.132 nM
[7]
  IC50: > 200 nM
[7]; 10 μM ATP, 10-dose IC50 mode
  IC50: 247 nM
[8]
  IC50: 55 nM
[9]
  IC50: 1.3 nM
[10]
  IC50: 1.8 nM
[11]
  IC50: 504 nM
[12]
  IC50: 495 nM
[13]
  IC50: ≤ 40 nM
[14]
  toxicity in normal BMMCs: hypotoxicity
